Patent publication US20230381170A1, “METHOD FOR TREATING ALS/FTD THROUGH DEGRADATION OF RNA REPEAT EXPANSION” (University of Florida Research Foundation, Incorporated, priority 2020, published 2023)

How the values were obtained:
Human Topoisomerase II = biological target: T1, Human Topoisomerase II (Homo sapiens, UniProt P11388); experiment: Topoisomerase assay; type: biochemical
T1 construct: purchased TopoGen
Method: Topoisomerase Assay. Topoisomerase inhibition was assessed in vitro using the TopoGen Human Topoisomerase II Assay Kit per manufacturer's recommended protocol. Samples were run on a 1% agarose gel post-stained with ethidium bromide. Topoisomerase inhibition was quantified as a percentage of linearized DNA compared to the positive control compound VP-16 supplied.

(G4C2)66-No ATG-GFP mRNA = experiment: Polysome profiling in HEK293T cells; type: cell-based, human; details: 200 nM
Method: Polysome Profiling. Polysome profiling studies were completed similarly to previously described methods (12, 30) Yang et al., 2015). Briefly, 100 mm dishes were plated with ˜3.5×10^6 HEK293T cells and batch-transfected for 5 h with 2.5 μg (G4C2)66-No ATG-GFP using Lipofectamine 3000 reagent according to manufacturer protocol. Then, cells were collected and plated overnight in 100 mm dishes with ˜2.5×10^6 HEK293T cells and treated with vehicle (DMSO, 0.5% final concentration) or 3 (200 nM). Upon 24 h treatment, cells were treated with cycloheximide (CHX, 0.1 mg/mL) and incubated for 5 min at 37° C. The medium was removed, and cells were washed by 2×7.5 mL ice cold DPBS supplemented with 0.1 mg/mL CHX. Cells were then lysed with 250 μL of ice-cold Cell Lysis Buffer [10 mM NaCl, 10 mM MgCl2, 10 mM Tris, pH 7.5, 1% Triton X-100, 1% sodium deoxycholate, 1 mM DTT supplemented with […] cycloheximide, and 0.2 U/μL RNAsin (Promega)]. The lysate obtained from 3×100 mm dishes were combined (˜500 μL final volume) and transferred to an Eppendorf tube, passed through a 21G needle several times and centrifuged for 5 min at 13,200 rpm and 4° C. The supernatant was transferred to a new tube and stored at −80° C. until further use. Cell lysates were then loaded on 10-50% sucrose gradients (prepared in 20 mM HEPES, pH 7.4, 100 mM KCl, 5 mM MgCl2, 3 mM DTT, and 0.1 mg/mL CHX) and separated at 40000 rpm for 2 h at 4° C. […] The levels of (G4C2)66-No ATG-GFP mRNA in each fraction were measured by qPCR as described above with primers specific for GFP (non-canonical translation), GAPDH, respectively (canonical translation) (Table 1). Data from vehicle- and compound-treated samples were normalized as follows: triplicate Ct values were averaged and ΔCt values were calculated; ΔΔCt values were afforded by comparing treated to untreated ΔCt values. […]

[1] = biological target: T2, ternary complex r(G4C2)66, RNase L and 7 (Homo sapiens, UniProt Q05823); experiment: RNase L RNA immunoprecipitation in HEK293T cells; type: cell-based; details: 500 nM, compared to vehicle
T2 construct: for degradation by recruiting the endogenous nuclease Rnase L; endogenous in cells; host or cells: HEK293T cells transfected with the (G4C2)66-No ATG-GFP plasmid (RNA only)
Method: RNA Immunoprecipitation. HEK293T cells were transfected with (G4C2)66-No ATG-GFP plasmid as described above, split into in 6-well plates, grown to ˜70% confluency, and treated with 500 nM 7 diluted in growth media for 24 h. The cell was washed with 1×PBS, removed from the plate with Accutase (Innovative Cell Technologies, Inc.), and then washed with 1×PBS. Cells were then lysed in 100 μL of M-PER buffer supplemented with 80 U RNaseOUT Recombinant Ribonuclease Inhibitor (Invitrogen) and 1× Protease Inhibitor Cocktail III for Mammalian Cells (Research Products International Corp.) per manufacturer's recommendations. The protein samples were tumbled overnight at 4° C. with Dynabeads Protein A (Life Technologies) that were bound to either β-actin mouse primary antibody (Cell Signaling Technologies; 3700S) or Rnase L mouse primary antibody (Santa Cruz Biotechnology; sc-74405). After antibody incubation, the beads were washed three times with 1×PBS supplemented with 0.02% Tween-20 and total RNA was extracted from beads using a miRNeasy Mini Kit (Qiagen) according to manufacturer's instructions.
Relative RNA expression levels before and after pull-down were determined by the ΔΔCt method and normalized to β-actin as a housekeeping gene.

[2] = system: Poly(GP), Poly(GA), TDP-43 inclusions; experiment: Immunohistochemistry of sagittal brain sections of +/+PWR500 mice; type: in vivo, mouse; details: cortex
Method: Therapeutic Efficacy in a c9ALS/FD mouse model. All animal studies were completed as approved by the Scripps Florida Institutional Animal Care and Use Committee. A total of 24 mice (12+/+PWR500 [7 Male and 5 Female] and 12 WT [6 Male and 6 Female]) mice, age- and gender-matched and ranging in age from 18-22 weeks old were used in therapeutic efficacy studies (Table 6). Mice were anesthetized by intraperitoneal (i.p.) injection of 10 mg/mL Ketamine:1 mg/mL Xylazine solution. Intracerebroventricular (ICV) stereotactic injections of 10 μL of 7 (33 nmol) were administered into the right ventricle using the following coordinates: 0.2 mm posterior and 1.0 mm lateral to the right from the bregma and 3 mm deep. Mice were treated with 7 or vehicle consisting of 1% DMSO in Saline. Three weeks post-treatment, mice were euthanized, and tissue was harvested for study.
Immunohistochemistry. Tissue was excised postmortem, and brain tissue was sliced at the midline. The right hemisphere was stored in 10% neutral buffered formalin for 48 h. Tissue processing, embedding and sectioning were carried out by the Scripps Florida's Histology Core. Formalin-fixed tissue was placed on a paraffin processor (Sakura Tissue-Tek VIPS), embedded in paraffin, sectioned a 4 μm, and mounted on plus slides. The slides were optimized with the appropriate primary antibody dilutions (see below) on the Leica BOND-MAX platform followed by the Leica Refine Detection Kit containing the secondary polymer, DAB chromagen and counterstain. After dehydration in graded alcohols and cleared in xylene, the slides were cover slipped with a permanent mounting medium, Cytoseal 60 (Thermo Scientific). Images were taken in the right hemisphere of the cortex due north of the hippocampus with 5 images were taken per slice. Average number of aggregates or inclusions per cell was assessed for each sample and reported. Statistical analysis was measured using an unpaired t-test with Welch's correction. Immunohistochemical staining and analyses were completed blinded.

T2 sequence (Q05823 whole entry, one chain of several): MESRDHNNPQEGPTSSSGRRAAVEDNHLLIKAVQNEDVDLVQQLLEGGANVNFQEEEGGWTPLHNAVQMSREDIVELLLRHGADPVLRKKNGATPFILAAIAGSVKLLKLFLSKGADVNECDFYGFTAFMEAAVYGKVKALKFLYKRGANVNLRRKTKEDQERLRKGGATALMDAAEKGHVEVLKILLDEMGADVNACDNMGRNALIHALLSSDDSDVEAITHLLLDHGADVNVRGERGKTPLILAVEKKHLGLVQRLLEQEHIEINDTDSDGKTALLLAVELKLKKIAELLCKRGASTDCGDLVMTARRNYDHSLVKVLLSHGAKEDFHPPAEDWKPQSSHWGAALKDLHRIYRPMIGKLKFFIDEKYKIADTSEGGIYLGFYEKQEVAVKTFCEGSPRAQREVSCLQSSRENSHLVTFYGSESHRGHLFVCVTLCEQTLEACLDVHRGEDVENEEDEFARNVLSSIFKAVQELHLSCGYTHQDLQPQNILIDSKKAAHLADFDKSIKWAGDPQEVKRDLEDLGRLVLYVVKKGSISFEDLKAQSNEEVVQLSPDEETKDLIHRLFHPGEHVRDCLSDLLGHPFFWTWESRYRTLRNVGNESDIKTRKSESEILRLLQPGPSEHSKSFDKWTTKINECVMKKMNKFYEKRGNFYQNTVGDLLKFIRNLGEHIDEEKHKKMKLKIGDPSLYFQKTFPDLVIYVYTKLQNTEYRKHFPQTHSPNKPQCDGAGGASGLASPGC
T1 sequence (P11388 whole entry): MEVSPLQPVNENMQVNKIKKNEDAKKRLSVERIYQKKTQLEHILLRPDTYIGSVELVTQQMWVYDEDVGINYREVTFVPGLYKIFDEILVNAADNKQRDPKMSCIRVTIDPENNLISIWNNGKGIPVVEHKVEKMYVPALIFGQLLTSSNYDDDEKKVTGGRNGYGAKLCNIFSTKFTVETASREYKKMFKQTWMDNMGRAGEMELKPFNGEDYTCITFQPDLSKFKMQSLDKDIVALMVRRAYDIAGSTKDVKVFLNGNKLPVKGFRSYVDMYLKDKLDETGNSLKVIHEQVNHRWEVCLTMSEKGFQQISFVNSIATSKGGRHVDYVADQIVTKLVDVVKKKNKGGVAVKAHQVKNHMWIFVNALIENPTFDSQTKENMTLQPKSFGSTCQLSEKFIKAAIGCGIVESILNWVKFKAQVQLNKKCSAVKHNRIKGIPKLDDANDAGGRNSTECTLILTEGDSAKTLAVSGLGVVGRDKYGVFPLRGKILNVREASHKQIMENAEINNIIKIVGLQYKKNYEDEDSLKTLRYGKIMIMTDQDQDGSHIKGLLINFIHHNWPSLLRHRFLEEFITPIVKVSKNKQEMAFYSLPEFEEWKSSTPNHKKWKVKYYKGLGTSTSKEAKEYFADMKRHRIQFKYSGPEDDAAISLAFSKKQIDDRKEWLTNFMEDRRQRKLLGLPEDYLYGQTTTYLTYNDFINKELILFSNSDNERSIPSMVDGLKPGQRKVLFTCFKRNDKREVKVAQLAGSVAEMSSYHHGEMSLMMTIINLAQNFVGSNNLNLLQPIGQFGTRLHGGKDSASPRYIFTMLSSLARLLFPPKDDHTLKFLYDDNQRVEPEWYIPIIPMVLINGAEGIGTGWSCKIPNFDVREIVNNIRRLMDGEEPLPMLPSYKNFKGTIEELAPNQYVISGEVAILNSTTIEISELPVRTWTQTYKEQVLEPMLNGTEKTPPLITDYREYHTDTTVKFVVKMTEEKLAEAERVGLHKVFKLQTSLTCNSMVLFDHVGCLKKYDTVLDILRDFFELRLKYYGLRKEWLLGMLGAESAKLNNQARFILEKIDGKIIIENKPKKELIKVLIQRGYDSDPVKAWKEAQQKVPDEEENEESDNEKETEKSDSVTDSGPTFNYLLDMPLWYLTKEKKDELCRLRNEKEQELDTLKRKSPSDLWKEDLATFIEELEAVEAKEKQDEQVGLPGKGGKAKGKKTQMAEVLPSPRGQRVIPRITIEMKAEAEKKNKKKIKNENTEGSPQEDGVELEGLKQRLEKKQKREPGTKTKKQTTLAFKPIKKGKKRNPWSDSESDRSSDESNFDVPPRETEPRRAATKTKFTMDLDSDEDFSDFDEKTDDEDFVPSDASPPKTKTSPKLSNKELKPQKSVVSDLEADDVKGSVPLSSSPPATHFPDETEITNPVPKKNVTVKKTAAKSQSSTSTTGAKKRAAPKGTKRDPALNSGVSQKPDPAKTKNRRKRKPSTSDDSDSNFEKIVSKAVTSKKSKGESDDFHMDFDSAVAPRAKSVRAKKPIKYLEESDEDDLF

Q: `Cc1c2ccncc2c(C)c2c1[nH]c1ccc(OCCOCCOCCNCCOCCOCCOc3ccc4[nH]c5c(C)c6ccncc6c(C)c5c4c3)cc12` [Compound 3] was tested. Which “topoisomerase activity in vitro” value (Human Topoisomerase II) did it give?
A: did not inhibit

Q: And the “increase of transcript abundance in low-molecular-weight (LMW) fractions” value ((G4C2)66-No ATG-GFP mRNA)?
A: 17±1%

Q: What about the “polysome loading of GAPDH (control transcript)” value ((G4C2)66-No ATG-GFP mRNA) of the same compound?
A: no effect

Q: And the “reduction of transcript loaded into high-molecular-weight (HMW) polysome fractions” value ((G4C2)66-No ATG-GFP mRNA)?
A: 22±2%

Q: With `CCOC(=O)C1=C(Nc2ccccc2)S/C(=C\c2ccc(OCCOCCOCCOCCNC(=O)CCC(=O)N(CCOCCOCCOc3ccc4[nH]c5c(C)c6ccncc6c(C)c5c4c3)CCOCCOCCOc3ccc4[nH]c5c(C)c6ccncc6c(C)c5c4c3)c(O)c2)C1=O` [Compound 7] as the compound, how does the “enrichment of r(G4C2)exp-containing mRNA in anti-Rnase L immunoprecipitated fractions” value [1] read?
A: ~2 fold

Q: And the “Poly(GA) aggregates” value ([2]; compared to vehicle)?
A: significant decrease

Q: And the “Poly(GP) aggregates” value ([2]; compared to vehicle)?
A: significant decrease

Q: What about the TDP-43 inclusions ([2]; relative to vehicle) of the same compound?
A: decreased
